The text below walks through data of patent US20190358138A1, “A PERSONAL CARE COMPOSITION” (Conopco, Inc., d/b/a UNILEVER, priority 2017, published 2019).

For assay [1], the system named is store-operated Ca^2+ entry (SOCE). Nature of the assay: Store-operated Ca2+ entry (SOCE) in isolated human eccrine sweat glands, thapsigargin-induced, Fura-2 340:380 ratio. Type of assay: cell-based. The following applies: for IC50: half-maximal concentration from dose-response curve, isolated eccrine glands, 1 μM thapsigargin; for inhibition at 10 µM: reduction in 340:380 ratio at maximal inhibitor concentration 10^−5M, as % of control response, read-out: Potency (% inhibition at 10^−5M). The procedure:
Isolation of Human Eccrine Sweat Glands
Viable human eccrine sweat glands were isolated from samples of human skin (obtained under ethical consent).
Measurement of Intracellular Ca^2+ Concentration
Intracellular [Ca^2+]i was measured in isolated eccrine glands by plating them onto Matrigel coated glass coverslips and loading them with the calcium-sensitive, fluorescent dye Fura-2 by incubation (30-45 minutes, 37° C.) with the membrane-permeant, acetoxymethyl ester form of the dye (Fura-2AM). These coverslips (with dye-loaded glands) were then mounted in a small chamber attached to the stage of an inverted microscope, and the glands superfused (ca. 5 ml minute^−1, 37° C.) with physiological salt solution (PSS; composition (mM): NaCl 130, KCl 5, MgCl2 1, CaCl2 1, HEPES 20, D-Glucose 10, pH 7.4 with NaOH). Changes in [Ca^2+]i were detected using 340/380 nm excitation and 510 nm emission wavelengths, and data expressed as the 340:380 ratio.
Measurement of Store-Operated Ca^2+ Entry (SOCE)
To measure store-operated calcium entry (SOCE), independent of external membrane receptor activation, the following assay protocol was used. First, isolated glands were exposed to 1 μM thapsigargin in Ca^2+-free PSS for 3 minutes. As thapsigargin inhibits the Ca^2+-ATPase uptake pathway in intracellular Ca^2+ stores, this enables Ca^2+ to leak out of the store and subsequently trigger the activation of SOCE. In Ca^2+-free PSS, this process is represented by a very small rise in [Ca^2+]i. Glands were then exposed to 1 μM thapsigargin in Ca^2+-containing PSS for 2 minutes, thereby inducing a rapid increase in [Ca^2+]i via Ca^2+ entry into the cells via the open SOCE pathway. To complete the protocol, thapsigargin is finally removed by washing the glands with Ca^2+ -containing PSS, and allowing the resting [Ca^2+]i level to re-establish itself, and the intracellular Ca^2+ stores to refill. The effectiveness of selected SOCE channel inhibitors were assessed by repeating the above procedure in the presence of the inhibitor (at a chosen concentration) from the time at which thapsigargin was added to release the intracellular Ca^2+ stores, until the cells were finally washed following the Ca^2+ peak initiated by Ca^2+ entry. Dose-response curves were constructed for each inhibitor and the half-maximal concentration (IC50) determined. The potency of each inhibitor was also assessed by expressing the reduction in the 340:380 ratio observed at the maximum concentration (10^−5M) as a % of the control response (i.e. in the absence of inhibitor; see Table 1).

Assay [2] deals with interleukin (IL)-6. Put plainly: THP-1 in vitro anti-inflammation assay: IL-6 ELISA in supernatant of PMA-differentiated, LPS-treated THP1-XBlue cells. Format: cell-based. The conditions noted are these: 24 hours, LPS alone 24176. The procedure: The following procedure was used to test the anti-inflammation efficacy of the actives.
THP1-XBlue™ (Cat No: thpx-sp, InvivoGen) cells were cultured as a suspension in RPMI 1640 medium supplemented with 10% FBS, penicillin (10 U/mL)—streptomycin (10 μg/ML). Cells were differentiated in 24-well plates at the density of 5×10^5 cells/well with 100 nM PMA for 72 hours. Cells were then co-treated with pure E. coli lipopolysaccharides (LPS) and with active. After 24 hours, the supernatants were collected and measured for interleukin (IL)-6 as pro-inflammatory bio-marker using enzyme-linked immunosorbent assay (ELISA).

The mark [3] stands for this setting: 20 μM active co-treated with E. coli LPS.

Take `COc1ccc(/C=C/C(=O)C(C)(C)C(=O)/C=C/c2ccc(OC)c(OC)c2)cc1OC` [Formula 2]: in assay [1], the IC50 is 0.024 µM and the inhibition at 10 µM amounted to 99%.

With `COc1cc(CCC(O)CC(O)CCc2ccc(O)c(OC)c2)ccc1O` (stereo not drawn) [Formula 4, 1,7-bis(4-hydroxy-3-methoxyphenyl) heptane-3,5-diol], in assay [1], the IC50 was 0.0912 µM and the inhibition at 10 µM stood at 75.4%. Further, the “Concentration of IL-6” value in assay [2] (setting [3]) came to 18218 pg/mL.

With `COc1ccc(CCC(O)C(C)(C)C(O)CCc2ccc(OC)c(OC)c2)cc1OC` (stereo not drawn) [Formula 5, 1,7-bis (3,4-dimethoxyphenyl)-4,4-dimethylheptane-3,5-diol], in assay [1], the IC50 was 0.138 µM and the inhibition at 10 µM turned out to be 76%. Besides, the “Concentration of IL-6” value in assay [2] (10 μM active co-treated with E. coli LPS) came out at 14880 pg/mL. Moreover, in assay [2] (setting [3]), the “Concentration of IL-6” value turned out to be 9142 pg/mL.
